Data on five molecules can be found in paper PMC10184313, “Inhibition of Thiamine Diphosphate-Dependent Enzymes by Triazole-Based Thiamine Analogues” (ACS Medicinal Chemistry Letters, 2023).

Data set [1] deals with T1, E. coli OGDHc E1 (Escherichia coli, UniProt P0AFG3).
T1 sequence (P0AFG3 1-933): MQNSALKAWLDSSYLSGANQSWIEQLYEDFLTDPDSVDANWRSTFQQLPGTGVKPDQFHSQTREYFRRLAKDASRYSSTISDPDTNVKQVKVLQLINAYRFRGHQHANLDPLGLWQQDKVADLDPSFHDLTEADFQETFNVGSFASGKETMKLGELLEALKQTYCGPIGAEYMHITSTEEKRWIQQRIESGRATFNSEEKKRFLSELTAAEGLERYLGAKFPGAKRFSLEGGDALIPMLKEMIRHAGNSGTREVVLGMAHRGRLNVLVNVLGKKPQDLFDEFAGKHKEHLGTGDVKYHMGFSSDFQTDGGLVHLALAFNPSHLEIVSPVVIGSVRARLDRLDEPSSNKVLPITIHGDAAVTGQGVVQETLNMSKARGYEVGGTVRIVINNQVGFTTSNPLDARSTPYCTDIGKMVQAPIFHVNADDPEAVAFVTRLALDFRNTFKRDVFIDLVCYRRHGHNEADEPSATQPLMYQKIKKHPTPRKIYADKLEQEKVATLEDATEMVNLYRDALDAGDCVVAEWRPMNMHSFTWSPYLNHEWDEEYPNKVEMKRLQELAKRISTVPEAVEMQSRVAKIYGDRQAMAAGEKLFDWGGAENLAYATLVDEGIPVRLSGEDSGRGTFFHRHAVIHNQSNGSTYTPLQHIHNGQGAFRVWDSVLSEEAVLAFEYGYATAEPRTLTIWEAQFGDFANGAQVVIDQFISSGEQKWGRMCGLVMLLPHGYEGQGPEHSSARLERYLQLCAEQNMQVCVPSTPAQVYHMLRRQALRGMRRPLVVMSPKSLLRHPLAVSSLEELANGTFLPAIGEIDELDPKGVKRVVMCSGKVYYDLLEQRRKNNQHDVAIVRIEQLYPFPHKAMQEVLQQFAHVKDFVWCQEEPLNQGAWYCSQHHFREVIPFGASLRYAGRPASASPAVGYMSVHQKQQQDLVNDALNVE
As to the kind of experiment: E. coli OGDHc E1 inhibitory activity assay (DCPIP reduction). The class given is biochemical. The note with it: E. coli OGDHc E1; read-out: KM(ThDP) OGDHc E1. As to the method: E. coli OGDHc E1 inhibitory activity assay. E. coli OGDHc E1 was from our previous work 5 and had been donated by R. Frank. Its activity was determined by monitoring DCPIP reduction at 600 nm using a microplate reader (CLARIOstar) and conducted as described 1,2 with some modifications. The percentage inhibition of compounds against E. coli OGDHc E1 was assayed at a final concentration of 250 µM. The reaction buffer (50 mM KH 2PO4 and 2 mM MgCl 2, pH 7) contained 50 µM ThDP (or 125 µM in the competition assay), 0.5 mM DCPIP, and 6.7 mg/ml E. coli OGDHc E1. The reaction mixture was preincubated at 37 °C for 60 min, then reaction was initiated by adding α-ketoglutarate to a final concentration of 10 mM. To determine the IC 50, ThDP concentration was lowered to 30 µM, and inhibitor concentration was varied (2-1000 µM). Specific activity was calculated using the molar […]
for the PDHc E1 assay. […] 5 […]

Data set [2] addresses T2, porcine PDHc E1 (Sus scrofa, UniProt P29804).
T2 sequence (P29804 31-390): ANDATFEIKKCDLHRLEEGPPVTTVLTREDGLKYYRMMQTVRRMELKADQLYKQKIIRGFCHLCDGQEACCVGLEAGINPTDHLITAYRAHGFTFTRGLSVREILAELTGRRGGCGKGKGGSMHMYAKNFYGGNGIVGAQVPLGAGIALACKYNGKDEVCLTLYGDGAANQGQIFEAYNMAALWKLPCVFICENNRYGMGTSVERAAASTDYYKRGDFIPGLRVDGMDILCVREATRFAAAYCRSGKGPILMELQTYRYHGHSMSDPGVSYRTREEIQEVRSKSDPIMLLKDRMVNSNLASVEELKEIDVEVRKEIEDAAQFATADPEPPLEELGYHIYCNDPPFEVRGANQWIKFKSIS
The data set can be described thus: PDHc E1 inhibitory activity assay (DCPIP reduction). The note with it: porcine PDHc E1; read-out: KM(ThDP) PDHc E1. Type of data set: biochemical. As to the method:
Enzyme assays – Methods and Results S1
Ligand efficiencies – Calculations S3 […]
Enzyme assays (Methods and Results)
PDHc E1 inhibitory activity assay. Porcine PDHc E1 was purchased from Sigma. Its activity was […]
determined by monitoring 2,6-dichlorophenolindophenol (DCPIP) reduction at 600 nm using a […]
microplate reader (CLARIOstar) and conducted as described 1,2 with some modifications. The percentage inhibition of compounds against porcine PDHc E1 was assayed at a final concentration of 250 µM. The reaction buffer (50 mM KH 2PO4 and 1 mM MgCl 2, pH 7) contained 50 µM ThDP (or 125 µM in the competition assay), 0.25 mM DCPIP, and 2 mg/ml porcine PDHc E1. The reaction mixture […]
was preincubated at 37 °C for 30 min, then the reaction was initiated by adding pyruvate to a final […]
concentration of 50 mM. To determine the half-maximal inhibitory concentration (IC 50 ), ThDP […]
concentration was lowered to 10 µM, and inhibitor concentration was varied (0.4-200 µM). Specific […]
activity was calculated using the molar extinction coefficient of DCPIP, 21 mM -1 cm-1.3 The enzyme […]
IC50 values were calculated from non-linear regression curve fitting using GraphPad Prism.

In data set [3] the test system is P. falciparum strain 3D7. To be noted: thiamine 2.97 μM vs absence of thiamine; ref [15]; cited from earlier work.
The test system of data set [4] is P. falciparum 3D7 expressing PfTPK-GFP. Also on record: method as in PMID 23804074. The note with it: thiamine-free culture medium; ref [15]; cited from earlier work.
Data set [5] has as its target PDC from Zymomonas mobilis. Also on record: method as in PMID 19082157, PMID 20099870. To be noted: ref [8],[24]; cited from earlier work.
Substrate in data set [6]: Cc1ncc(C[n+]2csc(CCO[P@](=O)(O)OP(=O)(O)O)c2C)c(N)n1
As to the kind of experiment: A. viridans PO inhibitory activity assay (quinoneimine dye). The class given is biochemical, Aerococcus viridans. To be noted: other: A. viridans PO; 37.0 °C. As to the method: A. viridans PO inhibitory activity assay. A. viridans PO and horseradish peroxidase were purchased from Sigma. A. viridans PO activity was determined by monitoring appearance of quinoneimine dye at 550 nm using a microplate reader (CLARIOstar) and conducted as described 1 with some modifications.
The percentage inhibition of compounds against A. viridans PO was assayed at a final concentration of 250 µM. The reaction buffer (50 mM KH 2PO4 and 10 mM MgCl 2, pH 5.9) contained 50 µM ThDP (or 125 µM in the competition assay), 10 µM flavin adenine dinucleotide (FAD), 0.15% 4-Aminoantipyrine, 0.3% N-Ethyl-N-(2-hydroxy-3-sulfopropyl)-m-toluidine (EHSPT), 50 µg/mL horseradish peroxidase and 0.35 U/mL A. viridans PO. The reaction mixture was preincubated at 37 °C for 30 min, then reaction was initiated by adding pyruvate to a final concentration of 50 mM. To determine the IC 50, inhibitor concentration was varied (2-1000 µM) with ThDP concentration at 50 µM. 1 unit of PO activity is defined as 1 μmol of hydrogen peroxide produced per minute. The enzyme IC 50 values were calculated as described for the PDHc E1 assay. […]

Substrate in data set [7]: Cc1ncc(C[n+]2csc(CCO[P@](=O)(O)OP(=O)(O)O)c2C)c(N)n1
The data set can be described thus: Z. mobilis PDC inhibitory activity assay (NADH consumption). Type of data set: biochemical, Zymomonas mobilis. To be noted: pH 7.0; 37.0 °C.

As usually defined, the Km is the substrate concentration at which the rate is half of its maximum. With `Cc1ncc(C[n+]2csc(CCO[P@](=O)(O)OP(=O)(O)O)c2C)c(N)n1` [ThDP, thiamine diphosphate], the Michaelis-Menten constant (Km) amounted to 3 µM in data set [1] and 0.05 µM in data set [2]. In the case of `Cc1ncc(C[n+]2csc(CCO)c2C)c(O)n1` [Compound 7a, oxythiamine], in data set [3], the “fold increase of IC50 with added thiamine” value was 470 fold. For the same molecule, in data set [4], the “fold more sensitive, parasite over-expressing TPK vs parasite bearing an empty plasmid” value is 70 fold.

Usually Ki stands for the equilibrium dissociation constant of an inhibitor or competing ligand from its target. On to `Cc1ncc(Cn2cc(CCOP(=O)(O)OP(=O)(O)O)nn2)c(N)n1` [Triazole-ThDP 5], for which, in data set [5], the Ki was 0.03 nM.

B1: A. viridans PO (Aerococcus viridans) (protein)
chain: MSDNKINIGLAVMKILESWGADTIYGIPSGTLSSLMDAMGEEENNVKFLQVKHEEVGAMAAVMQSKFGGNLGVTVGSGGPGASHLINGLYDAAMDNIPVVAILGSRPQRELNMDAFQELNQNPMYDHIAVYNRRVAYAEQLPKLVDEAARMAIAKRGVAVLEVPGDFAKVEIDNDQWYSSANSLRKYEPIAPAAQDIDAAVELLNNSKRPVIYAGIGTMGHGPAVQELARKIKAPVITTGKNFETFEWDFEALTGSTYRVGWKPANETILEADTVLFAGSNFPFSEVEGTFRNVDNFIQIDIDPAMLGKRHHADVAILGDAGLAIDEILNKVDAVEESAWWTANLKNIANWREYINMLETKEEGDLQFYQVYNAINNHADEDAIYSIDVGNSTQTSIRHLHMTPKNMWRTSPLFATMGIAIPGGLGAKNTYPDRQVWNIIGDGAFSMTYPDVVTNVRYNMPVINVVFSNTEYAFIKNKYEDTNKNLFGVDFTDVDYAKIAEAQGAKGFTVSRIEDMDRVMAEAVAANKAGHTVVIDCKITQDRPIPVETLKLDSKLYSEDEIKAYKERYEAANLVPFREYLEAEGLESKYIK
On to B1, for which the Michaelis-Menten constant (Km) in data set [6] is 5 µM.

B2: Z. mobilis PDC (Zymomonas mobilis subsp. mobilis ZM4 = ATCC 31821) (protein)
chain: MSYTVGTYLAERLVQIGLKHHFAVAGDYNLVLLDNLLLNKNMEQVYCCNELNCGFSAEGYARAKGAAAAVVTYSVGALSAFDAIGGAYAENLPVILISGAPNNNDHAAGHVLHHALGKTDYHYQLEMAKNITAAAEAIYTPEEAPAKIDHVIKTALREKKPVYLEIACNIASMPCAAPGPASALFNDEASDEASLNAAVEETLKFIANRDKVAVLVGSKLRAAGAEEAAVKFADALGGAVATMAAAKSFFPEENPHYIGTSWGEVSYPGVEKTMKEADAVIALAPVFNDYSTTGWTDIPDPKKLVLAEPRSVVVNGIRFPSVHLKDYLTRLAQKVSKKTGALDFFKSLNAGELKKAAPADPSAPLVNAEIARQVEALLTPNTTVIAETGDSWFNAQRMKLPNGARVEYEMQWGHIGWSVPAAFGYAVGAPERRNILMVGDGSFQLTAQEVAQMVRLKLPVIIFLINNYGYTIEVMIHDGPYNNIKNWDYAGLMEVFNGNGGYDSGAGKGLKAKTGGELAEAIKVALANTDGPTLIECFIGREDCTEELVKWGKRVAAANSRKPVNKLL
notes: made in house
As for B2, the Michaelis-Menten constant (Km) in data set [7] was determined as 0.35 µM.
